The results in this text go back to patent publication US7368578B2, “Five-membered heterocyclic compounds” (Takeda Pharmaceutical Company Limited, priority 2002, dated 2008).

One test addresses T1, human PPARγ1 (Homo sapiens, UniProt P37231).
T1 construct: expressed in transfected cells; host or cells: CHO-K1 cells stably transfected with pVgRXR2-hPPARγ and reporter plasmid pGL3-4ERPP-TK neo
T1 sequence (P37231 1-477 isoform P37231-2): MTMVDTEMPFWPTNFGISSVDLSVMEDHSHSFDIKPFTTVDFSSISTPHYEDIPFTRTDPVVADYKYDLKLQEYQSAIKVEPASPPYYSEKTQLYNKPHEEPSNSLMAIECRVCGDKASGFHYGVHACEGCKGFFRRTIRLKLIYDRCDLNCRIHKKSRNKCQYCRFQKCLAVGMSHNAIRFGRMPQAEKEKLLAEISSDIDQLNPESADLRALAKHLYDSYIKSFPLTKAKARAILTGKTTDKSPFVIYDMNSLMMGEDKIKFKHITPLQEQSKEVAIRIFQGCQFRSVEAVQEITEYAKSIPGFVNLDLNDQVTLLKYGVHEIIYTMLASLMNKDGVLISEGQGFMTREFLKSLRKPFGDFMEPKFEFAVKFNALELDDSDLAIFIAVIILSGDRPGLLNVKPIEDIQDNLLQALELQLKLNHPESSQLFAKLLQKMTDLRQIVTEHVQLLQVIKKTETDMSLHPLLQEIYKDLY
T1 sequence (P19793 1-462 partner): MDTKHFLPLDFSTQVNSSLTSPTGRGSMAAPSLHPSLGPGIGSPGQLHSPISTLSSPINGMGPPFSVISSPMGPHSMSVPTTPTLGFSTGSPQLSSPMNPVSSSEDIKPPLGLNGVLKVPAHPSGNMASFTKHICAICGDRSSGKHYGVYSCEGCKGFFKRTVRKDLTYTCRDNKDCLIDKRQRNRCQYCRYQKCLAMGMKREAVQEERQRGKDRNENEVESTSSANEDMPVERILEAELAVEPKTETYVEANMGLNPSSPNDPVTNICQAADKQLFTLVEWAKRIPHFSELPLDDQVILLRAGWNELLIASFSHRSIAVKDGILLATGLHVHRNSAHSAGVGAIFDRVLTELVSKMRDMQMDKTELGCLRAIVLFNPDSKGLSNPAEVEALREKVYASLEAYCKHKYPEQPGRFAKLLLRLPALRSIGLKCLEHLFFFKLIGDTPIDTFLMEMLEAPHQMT
Put plainly: Human PPARγ1 antagonist assay (luciferase reporter in PPARγ:RXRα:4ERPP/CHO-K1 cells). It is filed as cell-based. The following applies: test compound 10^−5 M, 10 nM compound A as stimulant, luciferase activity, 24 hrs, read-out: Inhibitory rate (%). As to the method:
PPARγ:RXRα:4ERPP/CHO-K1 cells (obtained in Reference Example 5a) cultured in Ham's F-12 medium (GIBCO, Inc.) supplemented with 10% fetal bovine serum (TRACE SCIENTIFIC, Ltd.) were seeded in a well of a 96 well white plate at 2×10^4 cells/well and cultured under 37° C. 5% CO2 conditions for 24 hrs. After removal of the medium, Ham's F-12 medium (GIBCO) containing 60 μl of 0.1% BSA (not containing fatty acid) (Wako Pure Chemical Industries, Ltd.), 20 μl of 10^−5M or 10^−6 M test compound and 20 μl of compound A having a final concentration of 10 nM as a stimulant were added, and the cells were cultured under 37° C. 5% CO2 conditions for 24 hrs. After removal of the medium, 40 μl of Pickagene LT7.5 (Wako Pure Chemical Industries, Ltd.) 2-fold diluted with HBSS (HANKS' BALANCED SALT SOLUTION) (BIO WHITTAKER Inc.) was added. After stirring, luciferase activity was measured using 1420 ARVO Multilabel Counter (Wallac, Inc.). In addition, a test similar to the above was conducted for the non-use of the aforementioned test compound alone and for the non-use of the aforementioned test compound and compound A to determine the luciferase activity.
The human PPARγ1 antagonistic activity of the test compound was evaluated using percentages (% inhibition) wherein the luciferase activity when 10 nM compound A alone was added was 0%, and the luciferase activity when the test compound and compound A were not added was 100%. The concentration of the test compound was 10^−5 M for the compounds of Example 42 and 315 and 10^−6 M for other test compounds.
After a CHO-K1 cell cultured in a cell culture flask (150 cm^2) (produced by Corning Costar Corporation, USA) containing Ham's F-12 medium (produced by Life Technologies, Inc., USA) supplemented with 10% fetal bovine serum (produced by Life Technologies, Inc., USA) was detached by treating with 0.5 g/L trypsin-0.2 g/L EDTA (ethylenediaminetetraacetic acid) (produced by Life Technologies, Inc., USA), the cell was washed with PBS (phosphate-buffered saline) (produced by Life Technologies, Inc., USA), centrifuged (1000 rpm, 5 minutes), and then suspended in PBS. Subsequently, the DNA was introduced into the cells under the conditions shown below using GENE PULSER (produced by Bio-Rad Laboratories, USA).
Namely, to a cuvette having a 0.4 cm gap, added were 8×10^6 cells and 10 μg of plasmid pVgRXR2-hPPARγ obtained in Reference Example 4a and 10 μg of reporter plasmid pGL3-4ERPP-TK neo obtained in Reference Example 2a, which was subjected to electroporation at the voltage of 0.25 kV under the capacitance of 960 μF. Subsequently, the cell was transferred into a Ham's F-12 medium containing 10% fetal bovine serum and cultured for 24 hours and then the cells were detached again and centrifuged, and then suspended in HAM F12 medium containing 10% fetal bovine serum supplemented with 500 μg/ml of GENETICIN (produced by Life Technologies, Inc., USA) and 250 μg/ml of ZEOCIN (produced by Invitrogen, USA). The obtained suspension was diluted to the density of 10^4 cells/ml and inoculated to a 96-well plate (produced by Corning Costar Corporation, USA), which was cultured in a CO2 gas incubator at 37° C., whereby obtaining a GENETICIN- and ZEOCIN-resistant transformant. Subsequently, after the transformant cell line thus obtained was cultured in a 24-well plate (produced by Corning Costar Corporation, USA), selected was a cell line in which the luciferase was expressed and induced, i.e., PPARγ:RXRα:4ERPP/CHO-K1 cell by the addition of 10 μM pioglitazone hydrochloride.
A general note: A reporter such as luciferase makes a cellular process visible.
Consider `Cc1oc(-c2ccco2)nc1COc1ccc(COc2nn(Cc3ccccc3)cc2C=O)cn1` [Example 42, 1-benzyl-3-[(6-{[2-(2-furyl)-5-methyl-1,3-oxazol-4-yl]methoxy}-3-pyridinyl)methoxy]-1H-pyrazole-4-carbaldehyde], for which the inhibition at 10 µM was 50%.

The same test, now with this note: test compound 10^−6 M, 10 nM compound A as stimulant, luciferase activity, 24 hrs, read-out: Inhibitory rate (%).
In the case of `CCOC(=O)c1cn(-c2ccccc2)nc1OCc1ccc(OCc2nc(-c3ccco3)oc2C)c(OC)c1` [Example 72, ethyl 3-[(4-{[2-(2-furyl)-5-methyl-1,3-oxazol-4-yl]methoxy}-3-methoxybenzyl)oxy]-1-phenyl-1H-pyrazole-4-carboxylate], the inhibition at 1 µM turned out to be 62%.

On to `COc1cc(COc2nn(-c3ccccc3)cc2CO)ccc1OCc1nc(-c2ccco2)oc1C` [Example 75, {3-[(4-{[2-(2-furyl)-5-methyl-1,3-oxazol-4-yl]methoxy}-3-methoxybenzyl)oxy]-1-phenyl-1H-pyrazol-4-yl}methanol], for which the inhibition at 1 µM worked out at 70%.

For the compound `COc1cc(COc2nn(-c3ccccc3)cc2C=O)ccc1OCc1nc(-c2ccco2)oc1C` [Example 76, 3-[(4-{[2-(2-furyl)-5-methyl-1,3-oxazol-4-yl]methoxy}-3-methoxybenzyl)oxy]-1-phenyl-1H-pyrazole-4-carbaldehyde], the inhibition at 1 µM is 63%. In the case of `COc1cc(COc2nn(-c3ccccc3)cc2C#N)ccc1OCc1nc(-c2ccco2)oc1C` [Example 77, 3-[(4-{[2-(2-furyl)-5-methyl-1,3-oxazol-4-yl]methoxy)-3-methoxybenzyl)oxy]-1-phenyl-1H-pyrazole-4-carbonitrile], the inhibition at 1 µM was found to be 51%. In the case of `CCOP(=O)(CCc1cn(-c2ccccc2)nc1OCc1ccc(OCc2nc(-c3ccco3)oc2C)c(OC)c1)OCC` [Example 100, diethyl 2-{3-[(4-{[2-(2-furyl)-5-methyl-1,3-oxazol-4-yl]methoxy}-3-methoxybenzyl)oxy]-1-phenyl-1H-pyrazol-4-yl}ethylphosphonate], the inhibition at 1 µM is 74%. In the case of `CCOP(=O)(/C=C/c1cn(-c2ccccc2)nc1OCc1ccc(OCc2nc(-c3ccco3)oc2C)c(OC)c1)OCC` [Example 116 (E form), diethyl (E)-2-{3-[(4-{[2-(2-furyl)-5-methyl-1,3-oxazol-4-yl]methoxy}-3-methoxybenzyl)oxy]-1-phenyl-1H-pyrazol-4-yl}ethenylphosphonate], the inhibition at 1 µM came out at 97%. Consider `COc1cc(COc2nn(-c3ccccc3)cc2/C=C/P(=O)(OC(C)C)OC(C)C)ccc1OCc1nc(-c2ccco2)oc1C` [Example 145, diisopropyl (E)-2-{3-[(4-{[2-(2-furyl)-5-methyl-1,3-oxazol-4-yl]methoxy}-3-methoxybenzyl)oxy]-1-phenyl-1H-pyrazol-4-yl}ethenylphosphonate], for which the inhibition at 1 µM stood at 96%.

Take `CCOP(=O)(/C=C/c1cn(-c2ccccc2)nc1OCc1ccc(OCc2nc(-c3ccccc3)oc2C)c(OC)c1)OCC` [Example 146, diethyl (E)-2-[3-({3-methoxy-4-[(5-methyl-2-phenyl-1,3-oxazol-4-yl)methoxy]benzyl}oxy)-1-phenyl-1H-pyrazol-4-yl]ethenylphosphonate]: the inhibition at 1 µM came to 111%.

`COc1cc(COc2nn(-c3ccccc3)cc2/C=C/c2csc(C)n2)ccc1OCc1nc(-c2ccco2)oc1C` [Example 150 (E form), 2-(2-furyl)-4-({2-methoxy-4-[({4-[(E)-2-(2-methyl-1,3-thiazol-4-yl)ethenyl]-1-phenyl-1H-pyrazol-3-yl}oxy)methyl]phenoxy}methyl)-5-methyl-1,3-oxazole]: the inhibition at 1 µM is 82%.

With `CCC(=O)/C=C/c1cn(-c2ccccc2)nc1OCc1ccc(OCc2nc(-c3ccco3)oc2C)c(OC)c1` [Example 156, (1E)-1-{3-[(4-{[2-(2-furyl)-5-methyl-1,3-oxazol-4-yl]methoxy}-3-methoxybenzyl)oxy]-1-phenyl-1H-pyrazol-4-yl}-1-penten-3-one], the inhibition at 1 µM was 66%. For `CCOP(=O)(/C=C/c1cn(-c2ccccc2)nc1OCc1ccc(OCc2csc(N3CCOCC3)n2)c(OC)c1)OCC` [Example 191, diethyl (E)-2-{3-[(3-methoxy-4-{[2-(morpholin-4-yl)-1,3-thiazol-4-yl]methoxy}benzyl)oxy]-1-phenyl-1H-pyrazol-4-yl}ethenylphosphonate], the inhibition at 1 µM was 79%. As to `CCOP(=O)(/C=C/c1cn(-c2ccccc2)nc1OCc1ccc(OCc2nc(-c3cccc(C(=O)O)c3)oc2C)c(OC)c1)OCC` [Example 203, 3-[4-({4-[({4-[(E)-2-(diethoxyphosphoryl)ethenyl]-1-phenyl-1H-pyrazol-3-yl}oxy)methyl]-2-methoxyphenoxy}methyl)-5-methyl-1,3-oxazol-2-yl]benzoic acid], the inhibition at 1 µM was determined as 111%. With `CCOP(=O)(/C=C/c1cn(-c2ccccc2)nc1OCc1ccc(OCc2nc(-c3cccc(C(=O)OC)c3)oc2C)c(OC)c1)OCC` [Example 211, methyl 3-[4-({4-[({4-[(E)-2-(diethoxyphosphoryl)ethenyl]-1-phenyl-1H-pyrazol-3-yl}oxy)methyl]-2-methoxyphenoxy}methyl)-5-methyl-1,3-oxazol-2-yl]benzoate], the inhibition at 1 µM stood at 110%. Take `CCc1nc(/C=C/c2cn(-c3ccccc3)nc2OCc2ccc(OCc3nc(-c4cccc(C(=O)O)c4)oc3C)c(OC)c2)cs1` [Example 224, 3-[4-({4-[({4-[(E)-2-(2-ethyl-1,3-thiazol-4-yl)ethenyl]-1-phenyl-1H-pyrazol-3-yl}oxy)methyl]-2-methoxyphenoxy}methyl)-5-methyl-1,3-oxazol-2-yl]benzoic acid]: the inhibition at 1 µM amounted to 112%. The same measure, in the same setting: the value for `CCOP(=O)(/C=C/c1cn(-c2ccccc2)nc1OCc1ccc(OCc2nc(-c3cccc(C(N)=O)c3)oc2C)c(OC)c1)OCC` [Example 239, diethyl (E)-2-(3-{[4-({2-[3-(carbamoyl)phenyl]-5-methyl-1,3-oxazol-4-yl}methoxy)-3-methoxybenzyl]oxy}-1-phenyl-1H-pyrazol-4-yl)ethenylphosphonate] was 116%.
